Source: US20180066322A1, “BIOMARKERS ASSOCIATED WITH CDK INHIBITORS” (NOVARTIS AG, priority 2012, published 2018)
“Also recorded” adds a separate entry of the source.

Legend:
[1] = tested on: DLBCL models harboring mutant CCND3 (PEST-domain mutation); test: Cell viability by Cell Titer Glo (cellular ATP), 72 hours, cells containing mutant CCND3; assay type: cell-based, human; conditions: 10 μM to 1.5 nM
Method: Using the pharmacologic characterization of the COLE cell lines, cell lines containing CCND3 mutations were tested for CDKi sensitivity. DOHH-2, NU-DHL-1, SEM, SU-DHL-4, SU-DHL-6, and SU-DHL-10 cells were purchased from Deutsche Sammlung von Mikroorganismen and Zellkulturen GmbH (DSMZ). DB and Pfeiffer cells were purchased from American Type Culture Collection (ATCC). A4/FUK cells were purchased from Health Science Research Resources Bank (HSRRB). These cells were cultured in RPMI 1640 medium (ATCC) supplemented with either 10% (A4/FUK, DB, DOHH-2, Pfeiffer, and SEM cells) or 20% (NU-DHL-1, SU-DHL-4, SU-DHL-6, and SU-DHL-10) fetal bovine serum (Gibco) and incubated at 37° C./5% CO2. For screening, cells were seeded in 80 μl of medium in 96-well plates (Costar #3904) at 10,000 (DB, DOHH-2, NU-DHL-1, SEM, SU-DHL-4, SU-DHL-6, and SU-DHL-10), 15,000 (A4/FUK) or 20,000 (Pfeiffer) cell densities and incubated overnight prior to compound addition. A4/FUK, DOHH-2, NU-DHL-1, SU-DHL-10, DB, Pfeiffer, SU-DHL-4 and SU-DHL-6 cells are diffuse large B cell lymphoma (DLBCL) cell lines. SEM cells are acute lymphoblastic B cell leukemia cells.
(§1) Compound stock (5×) was freshly prepared in the appropriate culture medium, and manually added to the plates by electronic multichannel pipette. In a minimum of three replicate wells, the number & viability of cells at the time of compound addition, as well as single agent effects after 72 hours, was assessed by quantification of cellular ATP levels via Cell Titer Glo (Promega, Madison, Wis.) according to the manufacturer's protocol. Day 0 subtracted-EC^50s were calculated using standard four-parametric curve fitting (XLFit, model 205).
CDKi(1)-CDKi(3) were synthesized at Novartis Pharma AG, and compound stocks were prepared in DMSO at a final concentration of 10 mM. Working stocks were serially diluted in the appropriate cell culture medium in 3-fold increments to achieve final assay concentrations ranging from 10 μM to 1.5 nM.

[2] = tested on: DLBCL models harboring wild-type CCND3; test: Cell viability by Cell Titer Glo (cellular ATP), 72 hours, cells containing wild type CCND3; assay type: cell-based, human; conditions: 10 μM to 1.5 nM
Method: Using the pharmacologic characterization of the COLE cell lines, cell lines containing CCND3 mutations were tested for CDKi sensitivity. DOHH-2, NU-DHL-1, SEM, SU-DHL-4, SU-DHL-6, and SU-DHL-10 cells were purchased from Deutsche Sammlung von Mikroorganismen and Zellkulturen GmbH (DSMZ). DB and Pfeiffer cells were purchased from American Type Culture Collection (ATCC). A4/FUK cells were purchased from Health Science Research Resources Bank (HSRRB). These cells were cultured in RPMI 1640 medium (ATCC) supplemented with either 10% (A4/FUK, DB, DOHH-2, Pfeiffer, and SEM cells) or 20% (NU-DHL-1, SU-DHL-4, SU-DHL-6, and SU-DHL-10) fetal bovine serum (Gibco) and incubated at 37° C./5% CO2. […]
as §1, with “205). […]” for “205).”

SMILES | sensitivity / cell viability of cells containing mutant CCND3 [1] | sensitivity / cell viability of cells containing wild type CCND3 [2]
CN(C)C(=O)c1cc2cnc(Nc3ccc(N4CCNCC4)cn3)nc2n1C1CCCC1 [CDKi(1)] | increased sensitivity | –
CC(=O)c1c(C)c2cnc(Nc3ccc(N4CCNCC4)cn3)nc2n(C2CCCC2)c1=O [CDKi(2), PD0332991, reference compound] | more sensitive; also recorded: sensitivity | –
CS(=O)(=O)N1CCC(NC(=O)c2[nH]ncc2NC(=O)c2c(Cl)cccc2Cl)CC1 [CDKi(3)] | more sensitive to the pan-CDK inhibitor than to the specific CDK 4/6 inhibitors; also recorded: insensitivity | more sensitive to the pan-CDK inhibitor than to the specific CDK 4/6 inhibitors; also recorded: insensitivity
